{"source": "patent US12239686B2", "about": "“Immune checkpoint inhibitor combinations” (LYTIX BIOPHARMA AS, priority 2014, dated 2025)", "format_in_all_cases": "cell-based, human", "key": {"CCRF-CEM/VLB": {"tested_on": "CCRF-CEM/VLB", "test": "Resistance index from MTS cytotoxicity", "details": "CCRF-CEM/VLB vs CCRF-CEM", "description": "Tumor cells were grown as adherent monolayers or as suspensions at 37° C. in a humidified atmosphere (5% CO2, 95% air). The culture medium was RPMI 1640 containing 2 mM L-glutamine (Lonza, Belgium) and supplemented with 10% fetal bovine serum (FBS, Lonza). For experimental use, the adherent cells were detached from the culture flask by a 5-minute treatment with trypsin-versene (Lonza), diluted in Hanks' medium without calcium or magnesium (Lonza) and neutralized by addition of complete culture medium. Cells were counted in a hemocytometer and their viability was assessed by 0.25% trypan blue exclusion. […]\nThree independent experiments were performed, each concentration being tested in quadruplicate. […] At the end of treatments, the cytotoxic activity was evaluated by a MTS assay (see § 3.3). […]\nAt the end of the cells treatment, 40 μl of a 0.22 μm filtered freshly combined solution of MTS (20 ml at 2 mg/ml, Ref G1111, Batch 235897, Exp 03/2009, Promega, Charbonnières, France) and PMS (1 ml at 0.92 mg/ml, Ref P9625, Batch 065K0961, Sigma) in Dulbecco's Phosphate Buffered Saline (DPBS, Ref 17-513Q, Batch 6MB0152, Cambrex), were added in each well. […] Absorbency (OD) were measured at 490 nm in each well using VICTOR^3TM 1420 multilabeled counter (Wallac, PerkinElmer, Courtaboeuf, France). […]\n(§1) Resistance index was calculated using the following formula: […]"}, "IGROV-1/CDDP": {"tested_on": "IGROV-1/CDDP", "details": "IGROV-1/CDDP vs IGROV-1 (cisplatin resistance)", "description": "(§2) Tumor cells were grown as adherent monolayers or as suspensions at 37° C. in a humidified atmosphere (5% CO2, 95% air). The culture medium was RPMI 1640 containing 2 mM L-glutamine (Lonza, Belgium) and supplemented with 10% fetal bovine serum (FBS, Lonza). For experimental use, the adherent cells were detached from the culture flask by a 5-minute treatment with trypsin-versene (Lonza), diluted in Hanks' medium without calcium or magnesium (Lonza) and neutralized by addition of complete culture medium. Cells were counted in a hemocytometer and their viability was assessed by 0.25% trypan blue exclusion.\n(§3) Tumor cells were plated in 96-well flat-bottom microtitration plates (Nunc, Dutscher, Brumath, France) and incubated at 37° C. for 24 hours before treatment in 190 μl of drug-free culture medium supplemented or not with 10% FBS for adherent or suspension growing cell lines, respectively.\n(§4) The adherent cell lines were washed once with 200 μl FBS-free culture medium before treatment. Tumor cells were incubated for 4 hours with 10 concentrations of compounds in ¼ dilution step with a top dose of 400 μM (range 4×10^−4 to 4×10^−10 M), with 1% (final concentration) Triton X-100 as positive control and FBS-free culture medium as negative control. The cells (190 μl) were incubated in a 200 μl final volume of FBS-free culture medium containing test substances at 37° C. under 5% CO2.\n(§5) Three independent experiments were performed, each concentration being tested in quadruplicate. Control cells were treated with vehicle alone. At the end of treatments, the cytotoxic activity was evaluated by a MTS assay (see § 3.3).\n(§6) Like MTT, MTS is bioreduced by cells into a formazan product that is directly soluble in culture medium without processing, unlike MTT.\n(§7) At the end of the cells treatment, 40 μl of a 0.22 μm filtered freshly combined solution of MTS (20 ml at 2 mg/ml, Ref G1111, Batch 235897, Exp 03/2009, Promega, Charbonnières, France) and PMS (1 ml at 0.92 mg/ml, Ref P9625, Batch 065K0961, Sigma) in Dulbecco's Phosphate Buffered Saline (DPBS, Ref 17-513Q, Batch 6MB0152, Cambrex), were added in each well. Culture plates were incubated for 2 h at 37° C. Absorbency (OD) were measured at 490 nm in each well using VICTOR^3TM 1420 multilabeled counter (Wallac, PerkinElmer, Courtaboeuf, France).\n(§8) [formula] • The OD values are the mean of 4 experimental measurements. • IC50: drug concentration to obtain a 50% inhibition of cell proliferation.\n(§9) The dose-response curves were plotted using XLFit 3 (IDBS, United Kingdom). The IC50 determination values were calculated using the XLFit 3 software from semi-log curves. Individual IC50 determination values as well as mean and SD values were generated.\nas §1\n(§10) Resistance index was calculated for each compound for each couple of sensitive and resistant cell lines. Individual resistance index was calculated when IC50 values of both sensitive and corresponding resistant cell lines were determined within same experiment. In addition, resistance index was also calculated ratio of mean IC50 values obtained during three independent experiments."}, "MCF-7/mdr": {"tested_on": "MCF-7/mdr", "details": "MCF-7/mdr vs sensitive MCF-7 (doxorubicin resistance)", "description": "as §2, §3, §4, §5, §6, §7, §8, §9, §1, §10"}, "HL-60/ADR": {"tested_on": "HL-60/ADR", "test": "In vitro cytotoxic activity, MTS assay; resistance index", "details": "HL-60/ADR vs sensitive HL-60 (doxorubicin resistance)", "description": "as §2, §3, §4, §5, §6, §7, §8, §9, §1, §10"}, "A375 cells": {"tested_on": "A375 cells", "test": "Confocal microscopy, fluorescence-labeled peptide internalization", "details": "1.5 and 3 μM", "description": "Fixed cells, fluorescence-labeled peptide-Subconfluential A375 cells were seeded at 8,000 cells/well as above, and transfected on the second day using the Lipofectamine LTX with Plus transfection reagents (Invitrogen) following the manufacturer's protocol. The mitochondria were labeled using the pDsRed2-Mito, and the nucleus was labeled using the GFP-Histon2B plasmid (Imaging Platform, University of Tromsø). A day after transfection, cells were washed twice with serum-free RPMI, and treated at different concentration and incubation periods with LTX-315 Pacific Blue or LTX-328 Pacific Blue.\nControl cells were treated with unlabeled LTX-315 and also with serum-free RPMI only. After incubation, cells were fixed with 4% paraformaldehyde in PBS, and the wells were covered with Prolong Gold antifade (Invitrogen). Cells were further analyzed by use of a Leica TCS SP5 confocal microscope, with a […] objective. Pacific Blue, GFP and Ds Red were excited using UV, with 488 and 561 lasers, and fluorescence channels were sequentially detected using the following band passes: UV: 420-480 nm (with attenuation), 488: 501-550 nm and 561: 576-676 nm."}}, "note": "Non-standard residues stand in square brackets, D forms with d. Residues, ends and D or L forms follow the SMILES beside them. No end group written: not given here. Bip = N[C@@H](Cc1ccc(-c2ccccc2)cc1)C(=O)O; dBip = N[C@H](Cc1ccc(-c2ccccc2)cc1)C(=O)O; Dip = N[C@H](C(=O)O)C(c1ccccc1)c1ccccc1", "data": [{"compound": "NCCCC[C@H](NC(=O)[C@H](Cc1c[nH]c2ccccc12)NC(=O)[C@H](Cc1c[nH]c2ccccc12)NC(=O)[C@H](CCCCN)NC(=O)[C@H](CCCCN)NC(=O)[C@H](Cc1c[nH]c2ccccc12)NC(=O)[C@H](Cc1ccc(-c2ccccc2)cc1)NC(=O)[C@H](CCCCN)NC(=O)[C@@H](N)CCCCN)C(N)=O", "note": "[LTX-313, K-K-Bip-W-K-K-W-W-K-NH2] (H-KK[Bip]WKKWWK-NH2; N-terminus assumed)", "values": [{"measurement": "Resistance index (RI)", "setting": "CCRF-CEM/VLB", "value": 0.76}, {"measurement": "Resistance index (RI)", "setting": "IGROV-1/CDDP", "value": 0.49}, {"measurement": "Resistance index (RI)", "setting": "MCF-7/mdr", "value": 1.24}, {"measurement": "Resistance index (RI)", "setting": "HL-60/ADR", "value": 1.16}]}, {"compound": "KAQ[Dip]QKQAW-NH2 [LTX-328, reference compound]", "values": [{"measurement": "internalization of Pacific Blue-labeled peptide", "setting": "A375 cells", "value": "did not demonstrate any internalization"}]}, {"compound": "NCCCC[C@H](NC(=O)[C@H](Cc1c[nH]c2ccccc12)NC(=O)[C@H](CCCCN)NC(=O)[C@H](CCCCN)NC(=O)[C@@H](NC(=O)[C@H](Cc1c[nH]c2ccccc12)NC(=O)[C@H](CCCCN)NC(=O)[C@H](CCCCN)NC(=O)[C@@H](N)Cc1c[nH]c2ccccc12)C(c1ccccc1)c1ccccc1)C(N)=O", "note": "[LTX-302, W-K-K-W-Dip-K-K-W-K-NH2] (H-WKKW[Dip]KKWK-NH2; N-terminus assumed)", "values": [{"measurement": "Resistance index (RI)", "setting": "IGROV-1/CDDP", "value": 0.33}, {"measurement": "Resistance index (RI)", "setting": "MCF-7/mdr", "value": 1.23}, {"measurement": "Resistance index (RI)", "setting": "HL-60/ADR", "value": 1.31}]}, {"compound": "NCCCC[C@@H](N)C(=O)N[C@H](CCCCN)C(=O)N[C@H](Cc1ccc(-c2ccccc2)cc1)C(=O)N[C@H](Cc1c[nH]c2ccccc12)C(=O)N[C@H](CCCCN)C(=O)N[C@H](CCCCN)C(=O)N[C@H](Cc1c[nH]c2ccccc12)C(=O)N[C@H](Cc1c[nH]c2ccccc12)C(=O)N[C@H](CCCCN)C(N)=O", "note": "[LTX-329, k-k-bip-w-k-k-w-w-k-NH2] (H-[dK][dK][dBip][dW][dK][dK][dW][dW][dK]-NH2; N-terminus assumed)", "values": [{"measurement": "Resistance index (RI)", "setting": "CCRF-CEM/VLB", "value": 0.76}, {"measurement": "Resistance index (RI)", "setting": "IGROV-1/CDDP", "value": 0.46}, {"measurement": "Resistance index (RI)", "setting": "MCF-7/mdr", "value": 1.07}, {"measurement": "Resistance index (RI)", "setting": "HL-60/ADR", "value": 0.80}]}, {"compound": "N=C(N)NCCC[C@H](NC(=O)[C@H](Cc1c[nH]c2ccccc12)NC(=O)[C@H](Cc1c[nH]c2ccccc12)NC(=O)[C@H](CCCNC(=N)N)NC(=O)[C@H](CCCNC(=N)N)NC(=O)[C@@H](NC(=O)[C@H](Cc1c[nH]c2ccccc12)NC(=O)[C@H](CCCNC(=N)N)NC(=O)[C@@H](N)CCCNC(=N)N)C(c1ccccc1)c1ccccc1)C(N)=O", "note": "[LTX-320, R-R-W-Dip-R-R-W-W-R-NH2] (H-RRW[Dip]RRWWR-NH2; N-terminus assumed)", "values": [{"measurement": "Resistance index (RI)", "setting": "IGROV-1/CDDP", "value": 0.49}, {"measurement": "Resistance index (RI)", "setting": "MCF-7/mdr", "value": 1.19}, {"measurement": "Resistance index (RI)", "setting": "HL-60/ADR", "value": 0.90}]}]}
